One assay has as its system elastase. In words: Relative activity (NIR fluorescence) of quenched peptides with control protease elastase. The assay is classed as biochemical.
In assay [1] the target is T1, SARS-CoV-2 main protease (Severe acute respiratory syndrome coronavirus 2, UniProt P0DTD1). To be noted: 0.1 mg/mL peptide; for Cleavage of peptide (site) by SARS-CoV-2 main protease: protease 10 μM, RP-HPLC-MS. The protocol: Mass spectra were acquired on a Agilent Technologies 6530 Accurate Mass Q-TOF LC/MS with an Agilent Infinity 1260/1290 HPLC. RP-HPLC was carried out using a RP-aqueous 030 analytical column, 5 uM, 150×2.0 mm [Phenomenex]. The mobile phase was A) 10 mM ammonium formate/2% v/v MeCN, pH 6.2 and B) 10 mM ammonium formate/90% v/v MeCN, pH 6.2.
The gradient used was 0.2 mL-min, 25 minutes.
0.1 mg/mL solution of each peptide in Table 3 was incubated with SARS-CoV-2 main protease (at 10 μM).

Assay [2] addresses T1, SARS-CoV-2 main protease.
The next assay has as its system SARS-CoV-2. In words: Clinical samples PCR-characterized for SARS-CoV-2, relative activity on DeNIRO. The following applies: peptide 20 μM; for Relative activity class, SARS-CoV-2 positive (swab): room temperature, 0-60 minutes.
A further assay relates to Rhinovirus. Briefly: Clinical sample, Rhinovirus positive, relative activity on DeNIRO. The following applies: peptide 20 μM.
For another assay, the system named is saliva proteases. In words: Cross reactivity to saliva proteases. In kind it is biochemical. Also noted: key: −: Not observed; +: observed.
Assay [3] deals with Mycobacterium tuberculosis.

Values joined by “and” are separate entries in the source; they are usually repeats but may differ in a detail not shown here. Equal entries are not always repeated. Where no end group is shown, it is not given here.

Experimental findings from patent publication US20230203558A1, “[…] FOR USE IN A METHOD OF DIAGNOSIS OF VIRAL INFECTION, KIT AND SYSTEM” (Original G B.V., priority 2020, published 2023) are described below.

Cy7-Ahx-AAFAA-K(QC1)-CONH2 [Peptide 3]: the figures for the “Relative activity, Elastase 0.2 μM” value with elastase (peptide concentration 5 μM) and in the assay on elastase (peptide concentration 20 μM) were 2.2 and 87.1, respectively. Also, the Cleavage fragment entry on SARS-CoV-2 main protease [1] (SARS-CoV-2 main protease 10 μM, 4 hours) is “NONE”. Besides, on SARS-CoV-2 main protease [1], the “Cleavage of peptide (site) by SARS-CoV-2 main protease” value (“Cleavage of peptide (site)” below) is recorded as “No cleavage was observed”. In addition, the “Ratio for SARS-CoV-2 main protease to elastase” value (from here on “Ratio”) on SARS-CoV-2 main protease [2] was 0.15. Also, the “Relative activity, SARS-CoV-2 main protease 0.2 μM” value at SARS-CoV-2 main protease [2] (pH 7.3) is 0.4 and 0.6.
As to “Cy7-Ahx-[PEG1]-HQS[PEG1]K(QC1)-CONH2 [Peptide 2]”, in the assay with elastase (peptide concentration 5 μM), the “Relative activity, Elastase 0.2 μM” value was determined as 0.1. The “Relative activity, Elastase 0.2 μM” value in the assay on elastase (peptide concentration 20 μM) worked out at 0.9. For the same substance, the “Cleavage of peptide (site)” value on SARS-CoV-2 main protease [1] is listed as “between Q-S”. Also, in the assay with SARS-CoV-2, the “Relative activity class, SARS-CoV-2 negative (saliva)” value is recorded as “− (a relative activity of <10% indicates absence of SARS-CoV-2 (−))”; the “Relative activity class, SARS-CoV-2 negative (swab)” value was “− (a relative activity of <10% indicates absence of SARS-CoV-2 (−))”; the “Relative activity class, SARS-CoV-2 positive (saliva)” value is “+ (A relative activity of >10% indicates the presence of SARS-CoV-2 (+))”; the “Relative activity class, SARS-CoV-2 positive (swab)” value was “+ (A relative activity of >10% indicates the presence of SARS-CoV-2 (+))”. The “Relative activity class, Rhinovirus positive” value in the assay with Rhinovirus was “− (a relative activity of <10% indicates absence of SARS-CoV-2 (−))”. In the assay on saliva proteases, the “Cross reactivity to saliva proteases” value is “−”. Also, the “Ratio” value at SARS-CoV-2 main protease [2] came out at 54. The “Relative activity class, Mycobacterium tuberculosis positive” value in assay [3] is on record as “− (key: A relative activity of >10% indicates the presence of SARS-CoV-2 (+); a relative activity of <10% indicates absence of SARS-CoV-2 (−))”.
Take “Cy7-Ahx-[PEG1]VLQS[PEG1]K(QC1)-CONH2 [Peptide 1]”: the “Relative activity, Elastase 0.2 μM” value in the assay on elastase (peptide concentration 5 μM) is on record as 7. For the same substance, in the assay on elastase (peptide concentration 20 μM), the “Relative activity, Elastase 0.2 μM” value is given as 8.5. Besides, at SARS-CoV-2 main protease [1], the “Cleavage of peptide (site)” value was “between Q-S”. Besides, in the assay on SARS-CoV-2, the “Relative activity class, SARS-CoV-2 negative (saliva)” value is recorded as “− (a relative activity of <10% indicates absence of SARS-CoV-2 (−))”; the “Relative activity class, SARS-CoV-2 negative (swab)” value is “− (a relative activity of <10% indicates absence of SARS-CoV-2 (−))”; the “Relative activity class, SARS-CoV-2 positive (saliva)” value is listed as “+ (A relative activity of >10% indicates the presence of SARS-CoV-2 (+))”; the “Relative activity class, SARS-CoV-2 positive (swab)” value is recorded as “+ (A relative activity of >10% indicates the presence of SARS-CoV-2 (+))”. Moreover, the “Relative activity class, Rhinovirus positive” value in the assay on Rhinovirus is “− (a relative activity of <10% indicates absence of SARS-CoV-2 (−))”. Moreover, the “Cross reactivity to saliva proteases” value in the assay with saliva proteases is recorded as “−”. Further, on SARS-CoV-2 main protease [2], the “Ratio” value came to 3.5. Moreover, the “Relative activity class, Mycobacterium tuberculosis positive” value in assay [3] is given as “− (key: A relative activity of >10% indicates the presence of SARS-CoV-2 (+); a relative activity of <10% indicates absence of SARS-CoV-2 (−))”.
As for “Ex 1.1: fluorescently quenched peptide (TVRLQSGF) with fluorescent agent, non-fluorescent agent and cleavage site specific for a Coronavirus (also: fluorophore and quencher, sites not given here)”, the “increase in RFU” value with SARS-CoV-19 virus was “An increase in RFU is detected”.
